Assay results from ChEMBL document CHEMBL5291721, “A preclinical secondary pharmacology resource illuminates target-adverse drug reaction associations of marketed drugs” (Nat Commun, 2023).

How the values were obtained:
[1] = target: 5-hydroxytryptamine receptor 2B (Homo sapiens, UniProt P41595); format: functional, cell-based
[2] = target: Acetylcholinesterase (Homo sapiens, UniProt P22303); format: functional
[3] = target: T1, Muscarinic acetylcholine receptor M2 (Homo sapiens, UniProt P08172)
T1 sequence (P08172 whole entry): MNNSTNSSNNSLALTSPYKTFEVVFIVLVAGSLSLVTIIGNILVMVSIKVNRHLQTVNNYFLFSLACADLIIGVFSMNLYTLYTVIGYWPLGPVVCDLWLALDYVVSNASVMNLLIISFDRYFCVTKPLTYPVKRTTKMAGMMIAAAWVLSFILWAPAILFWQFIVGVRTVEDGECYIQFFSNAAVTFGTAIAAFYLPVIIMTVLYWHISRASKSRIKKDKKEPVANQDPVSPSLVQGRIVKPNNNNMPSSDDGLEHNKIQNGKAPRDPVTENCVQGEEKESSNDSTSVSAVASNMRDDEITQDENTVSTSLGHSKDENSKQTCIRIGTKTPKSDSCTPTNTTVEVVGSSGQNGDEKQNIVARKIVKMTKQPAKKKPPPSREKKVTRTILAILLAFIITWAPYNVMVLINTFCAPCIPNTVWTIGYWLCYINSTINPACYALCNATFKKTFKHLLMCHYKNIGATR

[4] = target: T2, Thromboxane A2 receptor (Homo sapiens, UniProt P21731); format: functional, cell-based
T2 sequence (P21731 whole entry): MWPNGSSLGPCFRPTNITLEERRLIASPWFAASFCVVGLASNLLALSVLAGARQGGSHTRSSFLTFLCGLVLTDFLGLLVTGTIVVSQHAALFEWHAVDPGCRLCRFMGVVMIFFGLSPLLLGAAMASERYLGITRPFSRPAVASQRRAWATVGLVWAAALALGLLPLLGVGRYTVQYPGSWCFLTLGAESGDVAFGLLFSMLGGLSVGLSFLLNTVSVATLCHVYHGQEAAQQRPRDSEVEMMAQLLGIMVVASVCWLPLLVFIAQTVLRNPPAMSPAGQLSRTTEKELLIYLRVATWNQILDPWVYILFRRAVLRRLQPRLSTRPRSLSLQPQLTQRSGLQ

[5] = target: T3, Amine oxidase [flavin-containing] A (Homo sapiens, UniProt P21397); format: functional
T3 sequence (P21397 whole entry): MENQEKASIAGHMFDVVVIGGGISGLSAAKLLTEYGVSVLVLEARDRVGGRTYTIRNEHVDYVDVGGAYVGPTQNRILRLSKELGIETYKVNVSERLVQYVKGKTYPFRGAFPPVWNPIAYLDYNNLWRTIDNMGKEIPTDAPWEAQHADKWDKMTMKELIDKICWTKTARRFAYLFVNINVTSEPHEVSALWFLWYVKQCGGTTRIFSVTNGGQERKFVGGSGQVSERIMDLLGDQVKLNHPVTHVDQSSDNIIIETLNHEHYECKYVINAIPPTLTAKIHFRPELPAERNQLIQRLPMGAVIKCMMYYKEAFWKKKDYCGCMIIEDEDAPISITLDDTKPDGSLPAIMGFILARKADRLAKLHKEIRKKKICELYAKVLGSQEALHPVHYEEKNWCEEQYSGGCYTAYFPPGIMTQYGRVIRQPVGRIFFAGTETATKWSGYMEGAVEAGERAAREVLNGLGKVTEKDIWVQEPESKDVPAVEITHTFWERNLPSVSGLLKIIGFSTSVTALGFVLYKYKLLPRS

[6] = target: T4, Prostaglandin G/H synthase 1 (Homo sapiens, UniProt P23219); format: functional
T4 sequence (P23219 whole entry): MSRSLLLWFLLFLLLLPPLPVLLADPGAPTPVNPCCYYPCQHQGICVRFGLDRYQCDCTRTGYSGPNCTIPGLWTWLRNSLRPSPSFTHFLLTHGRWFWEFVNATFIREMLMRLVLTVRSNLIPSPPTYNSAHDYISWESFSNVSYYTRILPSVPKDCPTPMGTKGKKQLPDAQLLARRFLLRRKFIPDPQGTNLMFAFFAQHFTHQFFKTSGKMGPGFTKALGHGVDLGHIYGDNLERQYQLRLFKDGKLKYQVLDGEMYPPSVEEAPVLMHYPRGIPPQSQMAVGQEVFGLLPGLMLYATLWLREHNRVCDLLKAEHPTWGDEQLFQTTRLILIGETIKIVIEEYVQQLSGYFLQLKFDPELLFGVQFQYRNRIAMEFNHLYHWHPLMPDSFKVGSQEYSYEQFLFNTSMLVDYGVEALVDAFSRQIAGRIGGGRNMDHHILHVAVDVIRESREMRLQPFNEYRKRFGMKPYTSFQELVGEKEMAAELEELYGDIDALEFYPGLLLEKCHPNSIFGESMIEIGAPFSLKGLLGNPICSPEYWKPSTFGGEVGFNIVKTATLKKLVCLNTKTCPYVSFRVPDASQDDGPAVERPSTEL

[7] = target: T2, Thromboxane A2 receptor; format: functional, cell-based; remark: listed apart in the source
[8] = target: T4, Prostaglandin G/H synthase 1; format: functional; remark: listed apart in the source
[9] = target: Histamine H3 receptor (Homo sapiens, UniProt Q9Y5N1)
Histamine H3 receptor, sequence (Q9Y5N1 whole entry): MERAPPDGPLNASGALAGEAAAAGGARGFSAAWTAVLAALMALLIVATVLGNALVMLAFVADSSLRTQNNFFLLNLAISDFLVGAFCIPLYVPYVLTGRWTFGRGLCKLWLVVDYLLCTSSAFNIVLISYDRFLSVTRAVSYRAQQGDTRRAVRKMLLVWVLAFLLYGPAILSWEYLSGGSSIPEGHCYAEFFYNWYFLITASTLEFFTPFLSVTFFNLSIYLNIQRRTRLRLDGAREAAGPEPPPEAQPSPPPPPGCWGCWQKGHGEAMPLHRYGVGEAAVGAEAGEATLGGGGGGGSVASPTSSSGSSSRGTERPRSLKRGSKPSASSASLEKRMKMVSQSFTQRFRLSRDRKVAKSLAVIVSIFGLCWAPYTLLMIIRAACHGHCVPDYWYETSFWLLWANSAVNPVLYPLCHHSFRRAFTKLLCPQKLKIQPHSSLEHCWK

[10] = target: Prothrombin (Homo sapiens, UniProt P00734); format: functional
[11] = target: Voltage-gated inwardly rectifying potassium channel KCNH2 (Homo sapiens, UniProt Q12809); format: functional
Voltage-gated inwardly rectifying potassium channel KCNH2, sequence (Q12809 whole entry): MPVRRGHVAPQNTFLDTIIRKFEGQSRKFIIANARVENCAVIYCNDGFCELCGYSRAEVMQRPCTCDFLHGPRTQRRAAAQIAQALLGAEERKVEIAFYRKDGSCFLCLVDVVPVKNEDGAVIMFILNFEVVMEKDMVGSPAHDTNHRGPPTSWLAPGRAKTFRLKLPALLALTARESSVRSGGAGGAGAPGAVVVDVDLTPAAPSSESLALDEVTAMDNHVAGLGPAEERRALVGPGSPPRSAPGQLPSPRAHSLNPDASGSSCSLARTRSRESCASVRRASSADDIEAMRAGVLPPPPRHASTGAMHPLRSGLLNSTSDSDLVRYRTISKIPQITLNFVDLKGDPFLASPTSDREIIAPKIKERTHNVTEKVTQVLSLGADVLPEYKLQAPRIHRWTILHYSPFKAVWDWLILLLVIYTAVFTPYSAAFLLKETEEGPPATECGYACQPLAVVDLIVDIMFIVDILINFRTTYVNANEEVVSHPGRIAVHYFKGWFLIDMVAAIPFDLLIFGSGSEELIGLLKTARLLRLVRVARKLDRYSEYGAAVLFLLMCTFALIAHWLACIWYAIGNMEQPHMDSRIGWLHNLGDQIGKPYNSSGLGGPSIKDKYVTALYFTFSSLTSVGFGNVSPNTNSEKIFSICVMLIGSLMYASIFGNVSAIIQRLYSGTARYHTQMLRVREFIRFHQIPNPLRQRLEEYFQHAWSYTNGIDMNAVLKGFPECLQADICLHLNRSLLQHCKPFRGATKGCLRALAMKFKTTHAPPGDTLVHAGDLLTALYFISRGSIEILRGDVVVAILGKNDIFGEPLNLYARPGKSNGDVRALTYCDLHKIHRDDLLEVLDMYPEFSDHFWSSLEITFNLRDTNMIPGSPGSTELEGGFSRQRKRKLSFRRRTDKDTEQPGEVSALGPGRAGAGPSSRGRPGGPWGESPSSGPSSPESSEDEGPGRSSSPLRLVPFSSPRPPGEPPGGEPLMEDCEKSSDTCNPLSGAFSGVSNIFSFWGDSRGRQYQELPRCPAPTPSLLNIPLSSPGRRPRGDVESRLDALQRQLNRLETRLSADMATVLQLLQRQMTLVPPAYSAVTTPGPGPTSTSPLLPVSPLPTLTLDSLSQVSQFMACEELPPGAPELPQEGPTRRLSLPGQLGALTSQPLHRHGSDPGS

[12] = target: 3',5'-cyclic-AMP phosphodiesterase 4A (Homo sapiens, UniProt P27815); format: functional
3',5'-cyclic-AMP phosphodiesterase 4A, sequence (P27815 whole entry): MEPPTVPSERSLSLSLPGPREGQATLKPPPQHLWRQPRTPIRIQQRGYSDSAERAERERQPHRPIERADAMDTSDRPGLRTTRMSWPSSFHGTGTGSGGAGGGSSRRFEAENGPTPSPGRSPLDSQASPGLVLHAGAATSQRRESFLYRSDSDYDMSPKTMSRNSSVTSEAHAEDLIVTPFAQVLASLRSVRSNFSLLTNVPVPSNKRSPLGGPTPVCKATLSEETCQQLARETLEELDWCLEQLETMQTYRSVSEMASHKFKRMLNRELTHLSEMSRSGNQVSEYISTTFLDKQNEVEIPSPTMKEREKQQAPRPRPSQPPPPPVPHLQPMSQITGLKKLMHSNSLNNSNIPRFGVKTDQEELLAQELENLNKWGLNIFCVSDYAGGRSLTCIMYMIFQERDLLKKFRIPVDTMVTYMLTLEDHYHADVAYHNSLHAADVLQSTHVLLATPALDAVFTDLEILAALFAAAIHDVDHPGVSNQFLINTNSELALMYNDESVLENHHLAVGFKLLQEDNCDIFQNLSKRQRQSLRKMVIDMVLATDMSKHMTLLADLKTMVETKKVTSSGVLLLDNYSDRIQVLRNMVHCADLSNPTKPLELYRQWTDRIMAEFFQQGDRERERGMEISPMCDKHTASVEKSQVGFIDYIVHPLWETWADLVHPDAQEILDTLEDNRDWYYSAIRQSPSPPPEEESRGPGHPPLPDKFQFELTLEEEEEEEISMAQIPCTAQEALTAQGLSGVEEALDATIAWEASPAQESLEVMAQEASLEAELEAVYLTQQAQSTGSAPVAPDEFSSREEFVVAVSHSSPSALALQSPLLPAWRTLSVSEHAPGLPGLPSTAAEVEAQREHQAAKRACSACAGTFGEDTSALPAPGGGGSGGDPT

[13] = target: Sodium-dependent dopamine transporter (Homo sapiens, UniProt Q01959)
Sodium-dependent dopamine transporter, sequence (Q01959 whole entry): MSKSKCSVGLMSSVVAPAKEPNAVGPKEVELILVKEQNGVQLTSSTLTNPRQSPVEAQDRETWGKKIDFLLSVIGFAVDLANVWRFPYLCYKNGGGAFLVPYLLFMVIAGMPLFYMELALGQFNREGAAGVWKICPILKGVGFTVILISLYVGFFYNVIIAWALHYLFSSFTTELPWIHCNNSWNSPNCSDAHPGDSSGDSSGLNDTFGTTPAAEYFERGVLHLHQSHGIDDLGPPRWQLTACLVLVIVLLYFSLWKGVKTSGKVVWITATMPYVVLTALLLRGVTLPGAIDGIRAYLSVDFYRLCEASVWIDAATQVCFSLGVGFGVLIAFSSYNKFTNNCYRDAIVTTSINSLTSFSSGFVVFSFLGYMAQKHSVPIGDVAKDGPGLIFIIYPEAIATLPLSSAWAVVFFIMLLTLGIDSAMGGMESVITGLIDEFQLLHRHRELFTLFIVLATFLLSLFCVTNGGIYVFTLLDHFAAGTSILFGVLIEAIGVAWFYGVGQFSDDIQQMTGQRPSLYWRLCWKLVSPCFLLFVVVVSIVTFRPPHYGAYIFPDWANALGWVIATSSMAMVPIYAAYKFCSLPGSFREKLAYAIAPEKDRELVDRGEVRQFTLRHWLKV

[14] = target: D(3) dopamine receptor (Homo sapiens, UniProt P35462)
D(3) dopamine receptor, sequence (P35462 whole entry): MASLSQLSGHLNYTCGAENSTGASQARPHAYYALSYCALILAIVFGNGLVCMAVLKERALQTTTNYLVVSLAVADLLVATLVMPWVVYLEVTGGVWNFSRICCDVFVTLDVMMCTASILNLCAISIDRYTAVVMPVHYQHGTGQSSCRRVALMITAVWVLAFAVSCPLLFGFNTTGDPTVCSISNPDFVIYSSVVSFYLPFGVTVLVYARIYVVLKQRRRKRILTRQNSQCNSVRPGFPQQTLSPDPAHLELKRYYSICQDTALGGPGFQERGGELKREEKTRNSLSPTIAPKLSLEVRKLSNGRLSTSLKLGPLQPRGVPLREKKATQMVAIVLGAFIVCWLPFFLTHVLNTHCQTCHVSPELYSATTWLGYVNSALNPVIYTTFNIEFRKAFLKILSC

[15] = target: T5, Alpha-2A adrenergic receptor (Homo sapiens, UniProt P08913)
T5 sequence (P08913 whole entry): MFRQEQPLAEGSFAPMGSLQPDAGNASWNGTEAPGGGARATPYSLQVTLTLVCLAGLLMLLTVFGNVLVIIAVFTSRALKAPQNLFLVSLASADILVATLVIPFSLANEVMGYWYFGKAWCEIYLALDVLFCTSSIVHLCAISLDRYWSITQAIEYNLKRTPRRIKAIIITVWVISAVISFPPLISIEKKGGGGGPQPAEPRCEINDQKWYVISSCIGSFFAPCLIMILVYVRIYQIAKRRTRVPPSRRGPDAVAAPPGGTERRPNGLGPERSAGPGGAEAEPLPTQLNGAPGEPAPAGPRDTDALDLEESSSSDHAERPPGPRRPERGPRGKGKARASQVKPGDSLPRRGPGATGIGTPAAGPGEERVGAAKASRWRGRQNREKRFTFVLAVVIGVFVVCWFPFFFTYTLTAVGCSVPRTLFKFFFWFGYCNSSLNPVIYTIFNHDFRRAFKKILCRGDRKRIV
Also: assay procedure not described here.

Acetylcholinesterase, sequence (P22303 whole entry): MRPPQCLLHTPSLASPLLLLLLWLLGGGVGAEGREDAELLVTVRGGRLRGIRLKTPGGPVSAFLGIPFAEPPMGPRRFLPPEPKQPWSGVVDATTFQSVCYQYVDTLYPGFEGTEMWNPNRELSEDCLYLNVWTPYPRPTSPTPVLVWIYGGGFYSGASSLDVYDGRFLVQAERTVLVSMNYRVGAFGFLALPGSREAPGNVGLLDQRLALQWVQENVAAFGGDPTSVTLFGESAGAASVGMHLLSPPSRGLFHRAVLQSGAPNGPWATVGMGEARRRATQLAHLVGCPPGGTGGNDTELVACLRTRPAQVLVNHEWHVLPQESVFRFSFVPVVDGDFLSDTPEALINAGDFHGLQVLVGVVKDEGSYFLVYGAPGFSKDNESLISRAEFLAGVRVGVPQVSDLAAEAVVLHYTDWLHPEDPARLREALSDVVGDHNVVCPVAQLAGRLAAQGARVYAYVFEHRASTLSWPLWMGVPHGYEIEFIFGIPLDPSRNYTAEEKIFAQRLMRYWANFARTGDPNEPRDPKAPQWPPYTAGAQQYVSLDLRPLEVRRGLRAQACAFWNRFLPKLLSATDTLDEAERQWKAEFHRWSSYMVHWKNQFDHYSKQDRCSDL

Compound	AC50 [1]	AC50 [2]	AC50 [3]	AC50 [4]	AC50 [5]	AC50 [6]	AC50 [7]	AC50 [8]	AC50 [9]	AC50 [10]	AC50 [11]	AC50 [12]	AC50 [13]	AC50 [14]	AC50 [15]
N#Cc1ccc2c(c1)N(CCCN1CCC(O)CC1)c1ccccc1S2 [PERICIAZINE]	> 30 µM	29.1 µM	5.87 µM	> 30 µM	> 30 µM	> 30 µM	17 µM	21.5 µM	> 30 µM	> 30 µM	5.82 µM	> 30 µM	–	–	–
OC[C@H]1O[C@@H](c2ccc(F)c(Cc3cc4ccccc4s3)c2)[C@H](O)[C@@H](O)[C@@H]1O [IPRAGLIFLOZIN]	> 30 µM	> 30 µM	> 30 µM	> 30 µM	> 30 µM	> 30 µM	> 30 µM	> 30 µM	> 30 µM	> 30 µM	–	> 30 µM	7.69 µM	> 30 µM	> 30 µM
CN1CCC(=C2c3ccccc3Sc3ccccc32)CC1 [PIMETHIXENE]	> 30 µM	> 30 µM	0.0071 µM	> 30 µM	> 30 µM	> 30 µM	14 µM	> 30 µM	> 30 µM	> 30 µM	3.9 µM	> 30 µM	11.2 µM	0.0497 µM	0.0422 µM
CC(=O)Oc1cc(C(F)(F)F)ccc1C(=O)O [TRIFLUSAL]	> 30 µM	> 30 µM	> 30 µM	> 30 µM	> 30 µM	> 30 µM	> 30 µM	> 30 µM	> 30 µM	> 30 µM	–	> 30 µM	> 30 µM	> 30 µM	> 30 µM
N[C@@H](CS)C(=O)O [CYSTEINE]	> 30 µM	> 30 µM	> 30 µM	> 30 µM	> 30 µM	> 30 µM	> 30 µM	4.66 µM	> 30 µM	> 30 µM	–	> 30 µM	> 30 µM	> 30 µM	> 30 µM
CCc1nc(C(N)=O)c(Nc2ccc(N3CCC(N4CCN(C)CC4)CC3)c(OC)c2)nc1NC1CCOCC1 [GILTERITINIB]	> 30 µM	> 30 µM	16.4 µM	> 30 µM	> 30 µM	> 30 µM	> 0.3 µM	> 30 µM	13.7 µM	> 30 µM	–	2.44 µM	> 30 µM	26.7 µM	> 30 µM
CN1CCCCC1CCN1c2ccccc2Sc2ccc([S+](C)[O-])cc21 (configuration not stated) [MESORIDAZINE]	> 30 µM	> 30 µM	0.153 µM	> 30 µM	> 30 µM	> 30 µM	> 30 µM	> 30 µM	21.9 µM	> 30 µM	–	> 30 µM	19.8 µM	0.0197 µM	2.59 µM
CC[C@@]1(O)C(=O)OCc2c1cc1n(c2=O)Cc2cc3c([N+](=O)[O-])cccc3nc2-1 [RUBITECAN]	> 30 µM	3.65 µM	> 30 µM	> 30 µM	> 30 µM	> 30 µM	> 10 µM	26.8 µM	> 30 µM	> 30 µM	–	> 30 µM	> 30 µM	> 30 µM	> 30 µM
CC(CCc1ccccc1)NCC(O)c1ccc(O)c(C(N)=O)c1 (configuration not stated) [LABETALOL]	> 30 µM	> 30 µM	> 30 µM	> 30 µM	> 30 µM	> 30 µM	> 30 µM	> 30 µM	> 30 µM	> 30 µM	> 30 µM	> 30 µM	2.22 µM	5.85 µM	–
O=C(O)CO [GLYCOLIC ACID]	> 30 µM	> 30 µM	> 30 µM	> 30 µM	> 30 µM	> 30 µM	> 30 µM	> 30 µM	> 30 µM	> 30 µM	–	> 30 µM	> 30 µM	> 30 µM	> 30 µM
CN(C)[C@@H]1C(O)=C(C(N)=O)C(=O)[C@@]2(O)C(O)=C3C(=O)c4c(O)ccc(Cl)c4[C@@](C)(O)[C@H]3C[C@@H]12 [CHLORTETRACYCLINE]	> 30 µM	> 30 µM	> 30 µM	> 30 µM	> 30 µM	> 30 µM	> 30 µM	> 30 µM	> 30 µM	> 30 µM	> 30 µM	–	> 30 µM	> 30 µM	> 30 µM
CCOC(=O)c1c(C)cc2c(CO)n[nH]c(=O)c2c1C [OXAGRELATE]	> 30 µM	> 30 µM	> 30 µM	> 30 µM	> 30 µM	> 30 µM	> 30 µM	> 30 µM	> 30 µM	> 30 µM	–	> 30 µM	> 30 µM	> 30 µM	> 30 µM
CC1=C(/C=C/C(C)=C/C=C/C(C)=C/C(=O)O)C(C)(C)CCC1 [TRETINOIN]	> 30 µM	> 30 µM	> 30 µM	> 30 µM	> 30 µM	–	14.3 µM	–	> 30 µM	> 30 µM	–	1.27 µM	> 30 µM	22.6 µM	> 30 µM
CC[C@H](C)C[C@H](C)CCCCCCCCC(=O)N[C@H]1C[C@@H](O)[C@@H](NCCN)NC(=O)[C@@H]2[C@@H](O)CCN2C(=O)[C@H]([C@H](O)CCN)NC(=O)[C@H]([C@H](O)[C@@H](O)c2ccc(O)cc2)NC(=O)[C@@H]2C[C@@H](O)CN2C(=O)[C@H]([C@@H](C)O)NC1=O [CASPOFUNGIN]	> 30 µM	> 30 µM	10.8 µM	> 30 µM	> 30 µM	3.63 µM	> 30 µM	–	> 30 µM	> 30 µM	–	> 30 µM	4.13 µM	> 30 µM	> 30 µM
